For one test, the target named is TbPARP (Trypanosoma brucei brucei, UniProt Q0PW89). Kind of test: biochemical. As to conditions: 500 nM NAD+, 11 min at 25 °C, mean of three dose-response curves. Here is the method:
The optimal conditions for the activity of purified recombinant TbPARP, were determined by using a fluorometric activity assay. Incubation at 25 °C with shaking at 300 rpm was placed in propylene plates of 96 wells (Greiner BioOne). To terminate the reaction 2 M KOH (20 μL) and 20 % acetophenone in ethanol (20 μL) were added to each well. After incubating for 10 min at 4 °C, 90 μl of 88 % formic acid was added and incubated in an oven at 110 °C for 5 min. This reaction converts remaining NAD^+ to a fluorescent derivative. After incubation, the plate was allowed to cool down for 15 min and fluorescence was measured using excitation wavelengths of 372 nm and 444 nm for excitation and emission, respectively (Varioskan Flash 4.00.53, Thermo Scientific). Consumption of NAD^+ was detected by the decrease in fluorescence. Experiments were done in triplicates. The activity in control wells were kept under 25 % by optimizing the protein concentration and the incubation time, in order to get a robust signal without slowing down the enzyme activity.
A small set of cations was also tested in order to verify whether the enzymatic activity would depend on them. […] The final assay buffer was 100 mM Na2HPO4/NaH2PO4 pH 7, 500 μM TCEP, 1 μg/μL BSA, and 0.025 mg/mL activated DNA (Sigma Aldrich) and 500 nM NAD^+ (Sigma Aldrich).
Thirty - one compounds were tested. Dilutions from DMSO stocks were made (100 μM, 10 μM and 1 μM) and aliquots of those were used in the enzymatic reaction with 10-fold dilution. Inhibitor solutions were added in triplicates to the plate, followed by the addition of the NAD^+. Reactions were initiated by addition of TbPARP diluted in the same buffer (10 nM). The plate was incubated at 25 °C with shaking (300 rpm, Biosan PST-100 HL) for 45 min. […] To detect any potential fluorescence inherent in the compounds, control reactions were carried out separately with compound alone at 10 μM final concentration. The possible fluorescence quenching properties were controlled using wells within the experimental plate containing the compound with 500 nM NAD^+ in the assay buffer.
The IC50 value for 3-AB (Alexis Biochemicals) was also determined to be used as a reference. Briefly, reaction mix together with the inhibitors at half log dilutions were added to a 96-well plate (10 data points). Reactions were incubated for 11 min at 25 °C after initiating the reaction with the addition of 5 nM TbPARP at a final volume of 50 μL. Measurement of the remaining NAD^+ is described in section Screening of TbPARP inhibitors. All reactions were performed in triplicates and three independent dose response curves were fitted for each inhibitor. Control wells with only NAD^+ or NAD^+ and enzyme were used in the curve fitting, as detailed in our previous work.

The next test concerns hPARP-1. As to conditions: cited from earlier work.
In another test the test system is T. cruzi epimastigotes. As to conditions: cited from earlier work.
The subject of test [1] is Trypanosoma brucei bloodstream parasites. As to the kind of experiment: Effect of inhibitors on bloodstream parasite growth (Neubauer count, 24 h). The conditions noted are these: Olaparib 29 nM, Rucaparib 1.5 μM, 3-AB 580 μM, Nifurtimox 2.5 μM. Format: cell-based. The protocol:
Trypanosoma brucei bloodstream parasites were grown in HMI-11 medium for 24 h until reaching a density of 5×10^5 cells/mL. Aliquots of 100 μL were distributed in 96-well plates and inhibitors were added at different concentrations as indicated in the figures. After an incubation period of 24 h, the parasite number was counted with a Neubauer chamber. In all experiments, triplicates were done for each condition tested and data significance was assessed by one-way Anova (GraphPad Prism5.03 version Software).

Test [2] has as its system PAR formation in procyclic T. brucei. As to the kind of experiment: In culture inhibition of PAR formation after H2O2, Dot blot, procyclic form. It is filed as cell-based, Trypanosoma brucei. As to conditions: for reduction of PAR synthesis in the parasite: discussion, parasite form not given; for inhibition of PAR formation in culture, procyclic form: inhibitor at 10-fold in vitro IC50 (0.23 μM 4-ANI; 65 nM EB-47; 29 nM Olaparib; 1.5 μM Rucaparib), 30 min preincubation, 500 μM H2O2 10 min. Here is the method: (§1) T. brucei procyclic strain 29–13 [29] was cultured at 28 °C in SDM-79 (Bioscience) containing 10 % (v/v) FCS and 0002 % hemin. T. brucei bloodstream strain 427 90-13 [29] was cultured at 37 °C in HMI-11 (Iscore’s Modified Dulbecco’s Medium (Invitrogen), 100 mg/L sodium pyruvate, 136.1 mg/L hypoxantine, 38.7 mg/L thymidine, 28.22 mg/L bathocuproinedisulfonic acid, 181.8 mg/L L-cysteine, 3.024 mg/L sodium carbonate, 196 μM β-mercaptoethanol) containing FCS (10 % v/v). Parasite viability was analyzed by microscopy.
(§2) For in culture inhibition assays, parasites of the procyclic form of Trypanosoma brucei were grown for 48 h up to a density of 5×10^6 parasites/mL. Parasites of the bloodstream form were grown for 24 h up to a density of 5×10^5 parasites/mL. In both cases, cells were harvested and preincubated for 30 min or 10 min in PBS-Glucose 2 % with inhibitors added, after which the parasites were treated with 500 μM or 250 μM hydrogen peroxide for procyclic and bloodstream forms, respectively, for 10 min.

The test system of test [3] is Trypanosoma brucei procyclic parasites. As to the kind of experiment: Effect of inhibitors on procyclic parasite growth (OD600, 48 h). Format: cell-based. The conditions noted are these: 2.5 μM, 48 h, positive control. The protocol:
Trypanosoma brucei procyclic parasites were grown in SDM-79 medium for 48 h until reaching a density of 5×10^6 cells/mL. Aliquots of 200 μl were distributed in 96-well plates and inhibitors were present at different final concentrations, as indicated in the figures. Nifurtimox (NFX) was used as a positive control in concentrations ranging from 0.25–25 μM. Culture density was checked by OD600 after 48 h.
In all experiments, triplicates were done for each condition tested and data significance was assessed by one-way Anova (GraphPad Prism5.03 version Software).

Test [4] concerns PAR formation in bloodstream T. brucei. Kind of test: In culture inhibition of PAR formation after H2O2, Dot blot, bloodstream form. Format: cell-based, Trypanosoma brucei. As to conditions: inhibitor at 10-fold in vitro IC50 (29 nM Olaparib; 1.5 μM Rucaparib), 10 min preincubation, 250 μM H2O2. The protocol: as §1, §2
Test [5] has as its system RNAi-TbPARP procyclic parasites. Kind of test: Growth of Tet induced RNAi-TbPARP procyclic parasites with inhibitor. It is filed as cell-based, Trypanosoma brucei. The conditions noted are these: 290 nM inhibitor. The source says: A fragment of the TbPARP cDNA (nucleotides 1030 to 1445) [GenBank:DQ679800, Tb927.5.3050] and a fragment of the TbPARG cDNA (nucleotides 593 to 979) [Tb927.9.12810] were sub-cloned into the tetracycline-inducible expression vector p2T7^TI-177 [30] to down-regulate the genes of interest. In addition, whole TbPARP cDNA sequence was sub-cloned into the expression vector p2216 [31] (PCR primer sequences available upon request) to over-express the PARP-eYFP fusion gene.
Not I-linearized RNAi-TbPARP and RNAi-TbPARG constructs and the over-expression construct (10 μg) were transfected into procyclic parasites by electroporation, as described by Downey et al.. The selection of the transfectants was carried out with 20 μg/mL zeocin, and dsRNA and over-expression of the fusion protein was induced with 1.0 μg/mL tetracycline for 3 days.

Test [6] has as its system T. brucei procyclic parasites. Kind of test: Cell survival (motility) after H2O2 treatment with PARP inhibitor. The conditions noted are these: 29 nM inhibitor.
Procedure: Cell survival was determined by incubating 500 μL of 1 × 10^6 parasites/mL culture in 24-well cell culture plates (Cellstar) for 6 h with different concentrations of H2O2 (30 μM, 95 μM, 300 μM and 950 μM) and counting motile parasites over the total number using a Neubauer chamber. Each condition was tested in triplicates. Statistical significance was assessed with two-way Anova followed by Bonferroni test (version 5.03 of GraphPad Prism for Windows).
The subject of test [7] is wild type procyclic parasites. As to the kind of experiment: Annexin V / PI flow cytometric cell death analysis. As to conditions: 10 μg/mL, apoptosis-like positive control. It is filed as cell-based, Trypanosoma brucei. Here is the method:
Parasites were treated with 1 mM H2O2 for different time intervals and the cell death pathway involved was assessed as it has been detailed in our previous work. The exposure of wild type procyclic parasites for 6 and 12 h to 10 μg/mL Concanavalin A type IV (Sigma-Aldrich) confirmed the apoptosis-like death pathway (positive control). […] Results were analyzed with Cyflogic v 1.2.1 software.
On the technique in general: Flow cytometry measures light scatter and fluorescence of single cells or particles in a stream.

Setting [8] is: 5 nM TbPARP, read-out: TbPARP IC50.
Setting [9] is: 5 nM TbPARP, read-out: TbPARP pIC50 ± SEM (converted).

Here are results for eleven compounds from PMC4806436, “Disrupted ADP-ribose metabolism with nuclear Poly (ADP-ribose) accumulation leads to different cell death pathways in presence of hydrogen peroxide in procyclic Trypanosoma brucei” (Parasites & Vectors, 2016).

“Also recorded” adds a separate entry of the source. Where two headings read alike, the source gives them in different places.

Sequence of TbPARP (Q0PW89 entry or part of it): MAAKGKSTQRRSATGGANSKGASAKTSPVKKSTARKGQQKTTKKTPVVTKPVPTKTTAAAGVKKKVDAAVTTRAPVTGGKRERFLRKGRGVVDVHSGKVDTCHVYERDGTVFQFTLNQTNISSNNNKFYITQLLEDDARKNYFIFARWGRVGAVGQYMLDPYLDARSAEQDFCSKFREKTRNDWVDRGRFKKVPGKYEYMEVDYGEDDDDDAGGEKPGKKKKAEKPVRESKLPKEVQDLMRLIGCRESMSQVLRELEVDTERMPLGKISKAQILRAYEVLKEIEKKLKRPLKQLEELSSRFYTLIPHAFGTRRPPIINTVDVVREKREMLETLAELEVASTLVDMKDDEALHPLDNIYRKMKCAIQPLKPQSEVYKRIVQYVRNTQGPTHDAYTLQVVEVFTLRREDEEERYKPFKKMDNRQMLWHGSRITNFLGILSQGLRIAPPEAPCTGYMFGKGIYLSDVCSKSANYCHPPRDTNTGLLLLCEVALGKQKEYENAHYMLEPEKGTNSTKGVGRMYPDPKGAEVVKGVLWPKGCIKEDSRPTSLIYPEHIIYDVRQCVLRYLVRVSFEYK

On to `O=c1[nH]ccc2c(O)cccc12` [1,5-Isoquinolinediol, 5-hydroxy-1,2-dihydroisoquinolin-1-one], for which the IC50 at TbPARP (setting [8]) is 1200 nM; at TbPARP (setting [9]), 1230 nM; in the test with hPARP-1 (reported for human PARP-1) it was 390 nM.
For `NC(=O)c1cccc(N)c1` [Compound 3-AB, 3-aminobenzamide], the figures for the IC50 on TbPARP (setting [8]), at TbPARP (setting [9]) and in the test on hPARP-1 (reported for human PARP-1) were 58000 nM, 57500 nM and 22000 nM, respectively. In the test on T. cruzi epimastigotes (reported earlier, reference not given), the “effect on T. cruzi growth” value is “reported to diminish T. cruzi growth”. The “effect on bloodstream parasite growth” value in [1] is “did provoke a decrease on bloodstream parasite growth”.
On to `Nc1ccc2c3c(cccc13)C(=O)NC2=O` [Compound 4-ANI, 8-amino-3-azatricyclo[7.3.1.0^{5,13}]trideca-1(12),5,7,9(13),10-pentaene-2,4-dione], for which the IC50 on TbPARP (setting [8]) is 23 nM; at TbPARP (setting [9]) it was 22.9 nM; in the test on hPARP-1 it was 180 nM. In test [2], the “reduction of PAR synthesis in the parasite” value was “not able to reduce PAR synthesis in the parasite”. Also, in [2], the “inhibition of PAR formation in culture, procyclic form” value (“inhibition … procyclic form” below) was “scarcely inhibited the enzyme”.
As for `Nc1ncnc2c1ncn2[C@@H]1O[C@H](C(=O)N2CCN(CC(=O)Nc3cccc4c3CNC4=O)CC2)[C@@H](O)[C@H]1O` [EB-47, 2-(4-{[(2S,3S,4R,5R)-5-(6-amino-9H-purin-9-yl)-3,4-dihydroxyoxolan-2-yl]carbonyl}piperazin-1-yl)-N-(1-oxo-2,3-dihydro-1H-isoindol-4-yl)acetamide], the values for the IC50 on TbPARP (setting [8]) and on TbPARP (setting [9]) were 6.5 nM and 6.46 nM, respectively. The “reduction of PAR synthesis in the parasite” value in test [2] is on record as “not able to reduce PAR synthesis in the parasite”. In addition, the “inhibition … procyclic form” value in test [2] is recorded as “did not inhibit TbPARP at all”.
As for `Cc1nc(=O)c2cccc(O)c2[nH]1` [NU1025, 8-hydroxy-2-methyl-1,4-dihydroquinazolin-4-one], the IC50 is 680 nM against TbPARP (TbPARP IC50, […] nM TbPARP); 676 nM against TbPARP (TbPARP pIC50 ± SEM, 5 nM TbPARP); 400 nM with hPARP-1 (reported for human PARP-1).
As for `CC1CS(=O)(=O)CCN1/N=C/c1ccc([N+](=O)[O-])o1` (stereo not shown) [Nifurtimox], the “effect on procyclic parasite growth” value in test [3] was “slowed down procyclic parasite growth”. The “effect on bloodstream parasite growth” value in [1] is given as “did provoke a decrease on bloodstream parasite growth”.
As to `O=C(c1cc(Cc2n[nH]c(=O)c3ccccc23)ccc1F)N1CCN(C(=O)C2CC2)CC1` [Olaparib, 4-({3-[(4-cyclopropanecarbonylpiperazin-1-yl)carbonyl]-4-fluorophenyl}methyl)-1,2-dihydrophthalazin-1-one], the figures for the IC50 at TbPARP (setting [8]) and at TbPARP (setting [9]) were 2.9 nM and 2.95 nM, respectively. In test [4], the “inhibition of PAR formation in culture, bloodstream form” value is on record as “able to inhibit PAR formations in culture; also recorded: able to reduce PAR formation”. For the same compound, the “decrease in growth of T. cruzi epimastigotes in culture” value with T. cruzi epimastigotes (25 nM) was 50%. Moreover, in test [2], the “inhibition … procyclic form” value is “inhibited PAR formation in culture; also recorded: able to reduce PAR formation”. In test [5], the “growth rate of Tet induced RNAi-TbPARP procyclic parasites” value is on record as “no change in growth rate”. Also, the “parasite viability (motility) in presence versus absence of inhibitor” value is listed as “no difference in parasite viability” in test [6] (30 μM H2O2, 6 h) and “reduced the loss of viability induced by the oxidant” in test [6] (95 μM H2O2, 6 h). Further, the “parasite motility in presence versus absence of inhibitor” value in test [6] (300 μM H2O2, 6 h, not statistically significant) is recorded as “slight protective effect”. Further, the “effect on bloodstream parasite growth” value in [1] was “not able to significantly affect T. brucei growth or survival”.
Regarding `CN(C)CC(=O)Nc1ccc2[nH]c(=O)c3ccccc3c2c1` [PJ-34, 2-(dimethylamino)-N-(6-oxo-5,6-dihydrophenanthridin-2-yl)acetamide], the IC50 was 580 nM at TbPARP (setting [8]) and 589 nM on TbPARP (setting [9]).
Regarding `Oc1nc(C2CC2)nc2c1CSCC2` [RF03876, 2-cyclopropyl-5H,7H,8H-thiopyrano[4,3-d]pyrimidin-4-ol], the IC50 was 1100 nM at TbPARP (setting [8]) and 1150 nM at TbPARP (setting [9]).
`C[C@]1(c2nc3c(C(N)=O)cccc3[nH]2)CCCN1` [Veliparib, 2-[(2R)-2-methylpyrrolidin-2-yl]-1H-1,3-benzodiazole-4-carboxamide]: the IC50 at TbPARP (setting [8]) and on TbPARP (setting [9]) was 49 nM each time. At hPARP-1, the Ki was 5 nM.
In the case of Concanavalin A, the “cell death pattern (Annexin V incorporation)” value in [7] was “typical apoptosis response with an increment in Annexin incorporation”.

One may read the Ki as the equilibrium dissociation constant of an inhibitor or competing ligand from its target.
